Consider six molecules from US20210221866A1, “PROTEASE-RESISTANT LIPIDATED GLP-1 ANALOGS” (MEDIMMUNE LIMITED, priority 2015, published 2021).

Read-outs that look alike come from different tables or passages of the source. Numbered stars: 1 amine (or outer) side, 2 acyl side, 3 side chain; on linkers, the order of the positions; unused ones are H or OH. Square brackets hold non-standard residues; d marks the D form. Side chains are listed from the residue outwards. Peptide text beside a SMILES is read from it. * marks the point of attachment. C16 diacid = O=C(O)CCCCCCCCCCCCCCC(=O)*; γGlu = O=C(O)[C@H](CCC(=O)[*:2])N[*:1]; αMeF = C[C@](N)(Cc1ccccc1)C(=O)O; αMeK = C[C@](N)(CCCCN)C(=O)O; Lauroyl = CCCCCCCCCCCC(=O)*; αMeS = C[C@](N)(CO)C(=O)O; AEEA = NCCOCCOCC(=O)O; Aib = CC(C)(N)C(=O)O

Common to all, as to type: cell-based
Assay [1] has as its target T1, human GLP-1 receptor (GLP-1R) (Homo sapiens, UniProt P43220).
T1 construct: expressed in transfected cells; host or cells: HEK293 cells or CHO cells
Kind of assay: cAMP assay, human GLP-1R cells. The method, boiled down: (§1)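 Peptide-stimulated cAMP measured by two-step HTRF after a 30 min room-temperature incubation with receptor-expressing cells (hGLP-1R, hGIPR at 1×10^5 cells/ml; hGCGR at 2×10^5 cells/ml). Duplicate dilutions; EC50 from 4-parameter logistic fit of % Delta F.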

Another assay has as its target T2, GLP-1R (INS1e cells) (Rattus norvegicus, UniProt P32301).
T2 construct: endogenous in cells; host or cells: INS1e cells
T2 sequence (P32301 22-463): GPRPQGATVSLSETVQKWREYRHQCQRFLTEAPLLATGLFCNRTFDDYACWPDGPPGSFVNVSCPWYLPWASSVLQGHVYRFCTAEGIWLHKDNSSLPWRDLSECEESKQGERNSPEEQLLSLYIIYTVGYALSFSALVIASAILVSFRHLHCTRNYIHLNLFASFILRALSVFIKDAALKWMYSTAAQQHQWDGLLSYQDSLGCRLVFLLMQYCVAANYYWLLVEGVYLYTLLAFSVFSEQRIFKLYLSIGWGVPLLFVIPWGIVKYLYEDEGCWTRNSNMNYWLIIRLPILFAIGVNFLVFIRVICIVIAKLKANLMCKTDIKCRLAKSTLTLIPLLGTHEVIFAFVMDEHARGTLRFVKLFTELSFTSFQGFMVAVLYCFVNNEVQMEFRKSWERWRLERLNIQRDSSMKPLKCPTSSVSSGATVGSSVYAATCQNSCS
The assay can be described thus: INS1e assay, cAMP activity at GLP-1R.

Assay [2] has as its target T3, human glucagon receptor (GCGR) (Homo sapiens, UniProt P47871).
T3 construct: expressed in transfected cells; host or cells: HEK293 cells or CHO cells
The assay can be described thus: cAMP assay, human GCGR cells. Conditions: Table 9, bis-lipidated peptides. In outline:
as §1
In general terms: Cyclic AMP is a second messenger, typically raised through Gs and lowered through Gi signalling.

Assay [3] concerns the target T4, human glucose-dependent insulinotropic peptide receptor (GIPR) (Homo sapiens, UniProt P48546).
T4 construct: expressed in transfected cells; host or cells: HEK293 cells or CHO cells
T4 sequence (P48546 22-466): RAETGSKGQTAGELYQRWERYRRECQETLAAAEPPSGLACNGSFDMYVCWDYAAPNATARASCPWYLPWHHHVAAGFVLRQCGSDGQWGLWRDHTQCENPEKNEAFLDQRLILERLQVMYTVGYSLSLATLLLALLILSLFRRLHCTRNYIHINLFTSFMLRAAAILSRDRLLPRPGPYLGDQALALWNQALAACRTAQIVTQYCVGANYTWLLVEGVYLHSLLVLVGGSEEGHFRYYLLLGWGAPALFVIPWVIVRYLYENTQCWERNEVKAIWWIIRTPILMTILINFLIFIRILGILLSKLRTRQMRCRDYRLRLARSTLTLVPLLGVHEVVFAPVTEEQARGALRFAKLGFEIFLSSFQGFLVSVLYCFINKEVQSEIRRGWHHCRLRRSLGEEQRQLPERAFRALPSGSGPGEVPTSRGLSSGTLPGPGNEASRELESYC
The assay can be described thus: cAMP assay, human GIPR cells. Conditions: Table 9, bis-lipidated peptides. In outline: as §1

Setting [4] is: Table 8, substituted and mono-lipidated peptides, mean of n1 and n2, read-out: INS1e assay EC50 Mean pM GLP-1R.
Where [5] appears, read: first replicate, read-out: Primary assay EC50 Gluc-R (n1).
Where [6] appears, read: second replicate, read-out: Primary assay EC50 Gluc-R (n2).
[7] abbreviates: first replicate, read-out: Primary assay EC50 GIP-R (n1).
Where [8] appears, read: second replicate, read-out: Primary assay EC50 GIP-R (n2).

T3 sequence (P47871 26-477): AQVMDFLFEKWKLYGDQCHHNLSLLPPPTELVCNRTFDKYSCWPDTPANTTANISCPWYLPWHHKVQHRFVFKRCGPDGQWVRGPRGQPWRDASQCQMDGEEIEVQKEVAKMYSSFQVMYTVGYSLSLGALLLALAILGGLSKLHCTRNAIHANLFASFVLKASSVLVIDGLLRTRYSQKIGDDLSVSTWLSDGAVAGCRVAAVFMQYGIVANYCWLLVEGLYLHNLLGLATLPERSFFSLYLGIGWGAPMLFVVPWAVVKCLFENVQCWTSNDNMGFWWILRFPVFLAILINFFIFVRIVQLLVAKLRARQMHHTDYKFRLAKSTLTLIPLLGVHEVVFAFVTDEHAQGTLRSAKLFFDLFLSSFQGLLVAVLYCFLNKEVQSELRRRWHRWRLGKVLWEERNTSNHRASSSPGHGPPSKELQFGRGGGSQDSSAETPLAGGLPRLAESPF
T1 sequence (P43220 24-463): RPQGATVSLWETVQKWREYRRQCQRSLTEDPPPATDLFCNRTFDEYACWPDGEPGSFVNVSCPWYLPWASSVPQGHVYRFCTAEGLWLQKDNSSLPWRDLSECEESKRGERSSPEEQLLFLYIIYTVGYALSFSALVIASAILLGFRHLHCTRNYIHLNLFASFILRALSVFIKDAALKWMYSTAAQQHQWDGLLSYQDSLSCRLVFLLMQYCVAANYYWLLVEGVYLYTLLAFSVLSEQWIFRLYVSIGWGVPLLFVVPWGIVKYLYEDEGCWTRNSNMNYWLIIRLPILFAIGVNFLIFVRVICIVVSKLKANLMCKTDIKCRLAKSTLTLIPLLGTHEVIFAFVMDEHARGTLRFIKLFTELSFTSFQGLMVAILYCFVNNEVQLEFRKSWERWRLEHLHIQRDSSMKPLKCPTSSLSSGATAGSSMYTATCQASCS

On to `CC[C@H](C)[C@H](NC(=O)[C@](C)(Cc1ccccc1)NC(=O)[C@H](CCC(=O)O)NC(=O)[C@H](CCC(=O)O)NC(=O)[C@H](C)NC(=O)[C@H](C)NC(=O)[C@H](CCC(=O)O)NC(=O)CNC(=O)[C@H](CCC(=O)O)NC(=O)[C@H](CC(C)C)NC(=O)[C@](C)(Cc1ccccc1)NC(=O)[C@H](CO)NC(=O)[C@](C)(CO)NC(=O)[C@@H](NC(=O)[C@H](CC(=O)O)NC(=O)[C@H](CO)NC(=O)[C@@H](NC(=O)[C@](C)(Cc1ccccc1)NC(=O)[C@H](CO)NC(=O)CNC(=O)[C@H](CCC(=O)O)NC(=O)C(C)(C)NC(=O)[C@@H](N)Cc1c[nH]cn1)[C@@H](C)O)C(C)C)C(=O)N[C@@H](C)C(=O)N[C@@](C)(Cc1ccccc1)C(=O)N[C@H](C(=O)N[C@H](C(=O)N[C@@H](CCC(=O)O)C(=O)NCC(=O)NCC(N)=O)C(C)C)C(C)C` [compound 44] (H-H[Aib]EGS[αMeF]TSDV[αMeS]S[αMeF]LEGEAAEE[αMeF]IA[αMeF]VVEGG-NH2), for which the EC50 in assay [1] (cAMP activity, mean of n1 and n2, read-out: Mean pM GLP-1R) was 6.7 pM; on GLP-1R (INS1e cells) (setting [4]), 455 pM.

As for `CCCCCCCCCCCCCCCCCC(=O)NCCOCCOCC(=O)NCCOCCOCC(=O)NCCOCCOCC(=O)NCCCC[C@H](NC(=O)[C@H](C)NC(=O)[C@H](C)NC(=O)[C@H](CCC(=O)O)NC(=O)CNC(=O)[C@H](CCC(=O)O)NC(=O)[C@H](CC(C)C)NC(=O)[C@](C)(Cc1ccccc1)NC(=O)[C@H](CO)NC(=O)[C@H](CO)NC(=O)[C@@H](NC(=O)[C@H](CC(=O)O)NC(=O)[C@H](CO)NC(=O)[C@@H](NC(=O)[C@](C)(Cc1ccccc1)NC(=O)[C@H](CO)NC(=O)CNC(=O)[C@H](CCC(=O)O)NC(=O)C(C)(C)NC(=O)[C@@H](N)Cc1c[nH]cn1)[C@@H](C)O)C(C)C)C(=O)N[C@@H](CCC(=O)O)C(=O)N[C@@](C)(Cc1ccccc1)C(=O)N[C@H](C(=O)N[C@@H](C)C(=O)N[C@@](C)(Cc1ccccc1)C(=O)N[C@H](C(=O)N[C@H](C(=O)N[C@@](C)(CCCCN)C(=O)NCC(=O)NCC(N)=O)C(C)C)C(C)C)[C@@H](C)CC` [compound 52], at GLP-1R (INS1e cells) (setting [4]), the EC50 worked out at 20 pM.

Consider `CCCCCCCCCCCCCCCC(=O)N[C@@H](CCC(=O)NCCCC[C@H](NC(=O)[C@H](CCC(=O)O)NC(=O)[C@](C)(CCCCN)NC(=O)[C@H](C)NC(=O)[C@H](C)NC(=O)[C@H](CCC(=O)O)NC(=O)CNC(=O)[C@H](CCC(=O)O)NC(=O)[C@H](CC(C)C)NC(=O)[C@](C)(Cc1ccccc1)NC(=O)[C@H](CO)NC(=O)[C@](C)(CO)NC(=O)[C@@H](NC(=O)[C@H](CC(=O)O)NC(=O)[C@H](CO)NC(=O)[C@@H](NC(=O)[C@](C)(Cc1ccccc1)NC(=O)[C@H](CO)NC(=O)CNC(=O)[C@H](CCC(=O)O)NC(=O)C(C)(C)NC(=O)[C@@H](N)Cc1c[nH]cn1)[C@@H](C)O)C(C)C)C(=O)N[C@H](C(=O)N[C@@H](C)C(=O)N[C@@](C)(Cc1ccccc1)C(=O)N[C@H](C(=O)N[C@H](C(=O)N[C@@](C)(CCCCN)C(=O)NCC(=O)NCC(N)=O)C(C)C)C(C)C)[C@@H](C)CC)C(=O)O` [compound 78], for which the EC50 at GLP-1R (INS1e cells) (setting [4]) stood at 346 pM; at GLP-1R (INS1e cells) (Table 8, substituted and mono-lipidated peptides, replicate n2, read-out: INS1e assay EC50 GLP-1R n2) it was 346 pM.

On to `CCCCCCCCCCCC(=O)N[C@@H](CCC(=O)NCCOCCOCC(=O)NCCOCCOCC(=O)NCCCC[C@H](NC(=O)[C@H](CC(=O)O)NC(=O)[C@H](CO)NC(=O)[C@@H](NC(=O)[C@](C)(Cc1ccccc1)NC(=O)[C@H](CO)NC(=O)CNC(=O)[C@H](CCC(=O)O)NC(=O)C(C)(C)NC(=O)[C@@H](N)Cc1c[nH]cn1)[C@@H](C)O)C(=O)N[C@@H](CO)C(=O)N[C@@H](CO)C(=O)N[C@@H](Cc1ccc(O)cc1)C(=O)N[C@@H](CC(C)C)C(=O)N[C@@H](CCC(=O)O)C(=O)NCC(=O)N[C@@H](CCC(=O)O)C(=O)N[C@@H](C)C(=O)N[C@@H](C)C(=O)N[C@@](C)(CCCCN)C(=O)N[C@@H](CCC(=O)O)C(=O)N[C@@H](Cc1ccccc1)C(=O)N[C@H](C(=O)N[C@@H](CCCCNC(=O)COCCOCCNC(=O)COCCOCCNC(=O)CC[C@H](NC(=O)CCCCCCCCCCC)C(=O)O)C(=O)N[C@@H](Cc1c[nH]c2ccccc12)C(=O)N[C@H](C(=O)N[C@H](C(=O)N[C@@H](CCC(=O)O)C(=O)NCC(=O)NCC(N)=O)C(C)C)C(C)C)[C@@H](C)CC)C(=O)O` [compound 256] (H-H[Aib]EGS[αMeF]TSDK([AEEA-AEEA-γGlu-Lauroyl])SSYLEGEAA[αMeK]EFIK([AEEA-AEEA-γGlu-Lauroyl])WVVEGG-NH2; N-terminus assumed), for which the EC50 in assay [2] (setting [5]) was at least 22.2 nM; in assay [2] (setting [6]), at least 22.2 nM; on GLP-1R (INS1e cells) (Table 10, bis-lipidated peptides, mean of n1 and n2, read-out: INS1e assay EC50 Mean pM GLP-1R), 1300 pM; in assay [3] (setting [7]) it was at least 22.2 nM; in assay [3] (setting [8]) it was at least 22.2 nM.

Turning to `CC[C@H](C)[C@H](NC(=O)[C@H](Cc1ccccc1)NC(=O)[C@H](CCC(=O)O)NC(=O)[C@](C)(CCCCN)NC(=O)[C@H](C)NC(=O)[C@H](C)NC(=O)[C@H](CCC(=O)O)NC(=O)CNC(=O)[C@H](CCC(=O)O)NC(=O)[C@H](CC(C)C)NC(=O)[C@H](CCCCNC(=O)COCCOCCNC(=O)COCCOCCNC(=O)CC[C@H](NC(=O)CCCCCCCCCCCCCCC(=O)O)C(=O)O)NC(=O)[C@H](CO)NC(=O)[C@](C)(CO)NC(=O)[C@@H](NC(=O)[C@H](CC(=O)O)NC(=O)[C@H](CO)NC(=O)[C@@H](NC(=O)[C@](C)(Cc1ccccc1)NC(=O)[C@H](CO)NC(=O)CNC(=O)[C@H](CCC(=O)O)NC(=O)C(C)(C)NC(=O)[C@@H](N)Cc1c[nH]cn1)[C@@H](C)O)C(C)C)C(=O)N[C@@H](C)C(=O)N[C@@H](Cc1c[nH]c2ccccc12)C(=O)N[C@@H](CCCCNC(=O)COCCOCCNC(=O)COCCOCCNC(=O)CC[C@H](NC(=O)CCCCCCCCCCCCCCC(=O)O)C(=O)O)C(=O)N[C@H](C(=O)N[C@@H](CCC(=O)O)C(=O)NCC(=O)NCC(N)=O)C(C)C` [compound 267] (H-H[Aib]EGS[αMeF]TSDV[αMeS]SK([AEEA-AEEA-γGlu-C16 diacid])LEGEAA[αMeK]EFIAWK([AEEA-AEEA-γGlu-C16 diacid])VEGG-NH2; N-terminus assumed), the EC50 in assay [2] (setting [5]) was at least 21.7 nM; in assay [2] (setting [6]) it was at least 21.7 nM; in assay [1] (Table 9, bis-lipidated peptides, mean of n1 and n2, read-out: Primary assay EC50 Mean pM GLP-1R), 569 pM; in assay [1] (Table 9, bis-lipidated peptides, replicate n1, read-out: Primary assay EC50 GLP-1R n1), 628 pM; in assay [1] (Table 9, bis-lipidated peptides, replicate n2, read-out: Primary assay EC50 GLP-1R n2), 510 pM; in assay [3] (setting [7]) it was at least 21.7 nM. Further, in assay [3] (setting [8]), the EC50 is at least 21.7 nM.

As for `CCCCCCCCCCCC(=O)N[C@@H](CCC(=O)NCCOCCOCC(=O)NCCOCCOCC(=O)NCCCC[C@H](NC(=O)[C@H](C)NC(=O)[C@@H](NC(=O)[C@H](Cc1ccccc1)NC(=O)[C@H](CCCCNC(=O)COCCOCCNC(=O)COCCOCCNC(=O)CC[C@H](NC(=O)CCCCCCCCCCC)C(=O)O)NC(=O)[C@](C)(CCCCN)NC(=O)[C@H](C)NC(=O)[C@H](C)NC(=O)[C@H](CCC(=O)O)NC(=O)CNC(=O)[C@H](CCC(=O)O)NC(=O)[C@H](CCCCNC(=O)COCCOCCNC(=O)COCCOCCNC(=O)CC[C@H](NC(=O)CCCCCCCCCCC)C(=O)O)NC(=O)[C@H](Cc1ccc(O)cc1)NC(=O)[C@H](CO)NC(=O)[C@](C)(CO)NC(=O)[C@@H](NC(=O)[C@H](CC(=O)O)NC(=O)[C@H](CO)NC(=O)[C@@H](NC(=O)[C@](C)(Cc1ccccc1)NC(=O)[C@H](CO)NC(=O)CNC(=O)[C@H](CCC(=O)O)NC(=O)C(C)(C)NC(=O)[C@@H](N)Cc1c[nH]cn1)[C@@H](C)O)C(C)C)[C@@H](C)CC)C(=O)N[C@H](C(=O)N[C@H](C(=O)N[C@@H](CCC(=O)O)C(=O)NCC(=O)NCC(N)=O)C(C)C)C(C)C)C(=O)O` [compound 470] (H-H[Aib]EGS[αMeF]TSDV[αMeS]SYK([AEEA-AEEA-γGlu-Lauroyl])EGEAA[αMeK]K([AEEA-AEEA-γGlu-Lauroyl])FIAK([AEEA-AEEA-γGlu-Lauroyl])VVEGG-NH2; N-terminus assumed), on GLP-1R (INS1e cells) (Table 12, tris-lipidated peptides, mean of n1 and n2, read-out: INS1e assay EC50 Mean pM GLP-1R), the EC50 worked out at 3660 pM.
